Article PMC7811009, “Oxytocin modulates local topography of human functional connectome in healthy men at rest” (Communications Biology, 2021)
Where two headings read alike, the source gives them in different places.

What was measured:
[1] = Plasma oxytocin concentration by radioimmunoassay after 40 IU intranasal (spray or nebuliser) or 10 IU intravenous oxytocin; format: in vivo, human; conditions: for level at 0.95 h: male, human, 57 minutes post-administration (from last treatment offset), read-out: Concentration of plasmatic oxytocin
Description: We employed a double-blind, placebo-controlled, triple-dummy, crossover design. Participants visited our centre for 4 experimental sessions spaced 8.90 days apart on average (SD = 5.65, range: 5–28 days). In each session, participants received treatment via all three administration routes, in one of two fixed sequences: either nebuliser/intravenous infusion/standard nasal spray, or standard nasal spray/intravenous infusion/nebuliser, according to the treatment administration scheme presented in Fig. 8 (upper panel). In three out of four sessions only one route of administration contained the active drug; in the fourth session, all routes delivered placebo or saline. Participants were randomly allocated to a treatment order (i.e. a specific plan regarding which route delivered the active drug in each experimental session) that was determined using a Latin square design. Unbeknown to the participants, the first treatment administration method in each session always contained placebo (see Fig. 8, upper panel), while intranasal (spray or nebuliser) oxytocin was only delivered with the third treatment administration. This protocol maintained double-blinding while avoiding the potential washing-out of intranasally deposited oxytocin (as might have been the case if oxytocin had been administered at the first treatment administration point and placebo at the third administration point). All sessions were conducted during the morning to minimise potential circadian variability in resting brain activity[79] or oxytocin levels.
For the intranasal administrations, participants self-administered a nominal dose of 40 IU oxytocin (Syntocinon; 40 IU/ml; Novartis, Basel, Switzerland), one of the highest clinically applicable doses[81] that would insure that lack of effects on the brain are unlikely to result from under-dosing. We have shown that 40 IU delivered with a standard nasal spray induce robust rCBF changes in two different cohorts of healthy men using between-[12] and within-subjects[11] designs. Work from others have also reported this dose to modulate resting functional connectivity[19],[82]. For the intranasal administration, we used specially manufactured placebo that contained the same excipients as Syntocinon except for oxytocin. Participants self-administered intranasal oxytocin or placebo with the nasal spray or nebuliser following under the supervision of the lead experimenter who ensured the correct application of the devices. Additionally, all participants had been trained during the screening visit in the correct administration procedures.
Participants followed our standard in-house protocol that we have used consistently across all of our studies and is consistent with the guidelines outlined by Guastella et al. (2013)[83]. […] Participants blocked opposite nostril while administering each puff, and each puff was followed by an immediate, brief, sharp, snort.
Participants self-administered 40 IU oxytocin (Syntocinon) or placebo, by operating the SINUS nebulizer for 3 min in each nostril (6 min in total), according to instructions. The correct application of the device was confirmed by determining gravimetrically the administered volume. Participants were instructed to breathe using only their mouth and to keep a constant breathing rate with their soft palate closed, to minimize delivery to the lungs. Previous studies using this nebuliser[34] have shown up to 9.0% (±1.9%) of the total administered dose to be delivered to the olfactory region, 15.7% (±2.4%) to the upper nose.
For the intravenous administration, we delivered 10 IU oxytocin (Syntocinon injection formulation, 10 IU/ml, Alliance, UK) or saline via slow infusion over 10 min (1IU/min). A 50-ml syringe was loaded with either 32 ml of 0.9% sodium chloride (placebo) or 30 ml of 0.9% sodium chloride with […] of Syntocinon (10 IU/ml). […]

[2] = tested on: human functional connectome at rest; assay: Resting-state BOLD-fMRI, graph theory: nodal betweenness-centrality (mesoscale); 40 IU intranasal (spray/nebuliser) or 10 IU intravenous, about 57 min post-dosing, 16 healthy men; format: in vivo; conditions: post-hoc paired t-tests, FDR
Experimental: (§1) Each experimental session began with the treatment administration protocol that lasted about 22 min in total (Fig. 8, lower panel). After drug administration, participants were guided to the MRI scanner, where eight pulsed continuous arterial spin labelling scans (each lasting approx. eight minutes) were acquired, spanning 15–104 min post-dosing (data reported elsewhere[11]). The 8-min resting state BOLD-fMRI scan reported herein was obtained at about 57 ± 3.38 min post-dosing. Participants were instructed to lie still and maintain their gaze on a centrally placed fixation cross during scanning. We assessed participants’ levels of alertness (anchors: alert-drowsy) and excitement (anchors: excited-calm) using visual analogue scales (0–100) at three different time-points during the scanning session to evaluate subjective drug effects across time (data reported elsewhere[11]).
(§2) We used the CONN functional connectivity toolbox[97] to generate brain-wide functional connectivity matrices for each subject/session. […] The default atlas of the CONN toolbox includes 132 non-overlapping ROIs spanning cortical and subcortical areas and the cerebellum using a combination of the cortical and subcortical areas from the FSL Harvard-Oxford atlas and of the cerebellar areas of the Automatic Anatomical Labelling atlas (Supplementary data 1 for a detailed description). […] Finally, we normalized our correlation measures to z-scores using the Fisher’s r-z transform per subject/session.
We then used our z-transformed connectivity matrices to construct brain graphs representing a functional connectivity network for each subject/session. We used an undirected signed weighted approach in which we kept information about the sign and weight of each of the connections between the nodes (ROIs) of our network, without making assumptions about the direction of this relationship. These connectivity matrices represent fully connected networks, where each node corresponds to each of the ROIs we used to build the functional connectivity matrices and each edge represents the z-transformed value of functional connectivity between a pair of nodes. […] We used the fully weighted networks to calculate equi-sparse networks by retaining a fixed percentage (K) of the total amount of possible edges. In order to determine systematic pharmacological effects on the network’s topological organization that are not dependent on the choice of an arbitrary threshold, we chose a range of sparsity thresholds from 5 to 34%, with steps of 1%, based on previous evidence showing the characteristic small-world behaviour of human brain networks is most consistently observed for this range[30]. For each network and sparsity level, we used the MATLAB functions provided with the Brain Connectivity Toolbox[16] to compute four global and regional network metrics: global efficiency, node degree, local efficiency and betweenness-centrality. Details on the calculation of each of these metrics have been described elsewhere. The combination of these four metrics allows us to test for treatment effects on connectivity at both global and regional levels, taking into account complementary aspects of functional integration of information exchange within the brain network. […]
(§3) For each of the graph metrics analysed, we summarized the different values over the range of thresholds using the area under the curve (AUC), instead of applying multiple testing for each metric/threshold. […]

[3] = tested on: human functional connectome at rest; assay: Resting-state BOLD-fMRI, graph theory: node degree (mesoscale); same doses, time and cohort; format: in vivo; conditions: post-hoc paired t-tests, FDR
Experimental: as §1, §2
We then used our z-transformed connectivity matrices to construct brain graphs representing a functional connectivity network for each subject/session. We used an undirected signed weighted approach in which we kept information about the sign and weight of each of the connections between the nodes (ROIs) of our network, without making assumptions about the direction of this relationship. These connectivity matrices represent fully connected networks, where each node corresponds to each of the ROIs we used to build the functional connectivity matrices and each edge represents the z-transformed value of functional connectivity between a pair of nodes. […] We used the fully weighted networks to calculate equi-sparse networks by retaining a fixed percentage (K) of the total amount of possible edges. […]
as §3

SMILES: CC[C@H](C)[C@@H]1NC(=O)[C@H](Cc2ccc(O)cc2)NC(=O)[C@@H](N)CSSC[C@@H](C(=O)N2CCC[C@H]2C(=O)N[C@@H](CC(C)C)C(=O)NCC(N)=O)NC(=O)[C@H](CC(N)=O)NC(=O)[C@H](CCC(N)=O)NC1=O [oxytocin]
- Plasmatic oxytocin concentrations at post-administration, intravenous versus other conditions ([1]; 57 min post-administration, all pTukey < 0.010): higher in the intravenous condition than in all the other three treatment conditions
- Plasma oxytocin concentrations, spray versus nebuliser ([1]; 57 min post-administration, pTukey = 1.000): did not differ
- Plasma oxytocin concentration at 57 min post-administration compared to baseline ([1]; Intranasal (spray, nebuliser) and intravenous administrations, all pTukey < 0.010): increased plasma oxytocin concentration
- Concentration of plasmatic oxytocin ([1]; Nebuliser (40 IU intranasal, PARI SINUS nebuliser), 57 minutes post-administration, plasma, radioimmunoassay after extraction, mean, n = 16 healthy men): 7.207 pg/mL
- level at 0.95 h ([1]; inhaled or intranasal, Spray (40 IU intranasal, standard nasal spray), plasma, radioimmunoassay after extraction, mean, n = 16 healthy men): 7.03 pg/mL
- level at 0.95 h ([1]; Intravenous (10 IU infusion over 10 min, 1IU/min), plasma, radioimmunoassay after extraction, mean, n = 16 healthy men): 16.4 pg/mL
- Nodes with decreased betweenness-centrality compared to placebo ([2]; intravenous, 10 IU): decreased the betweenness-centrality of the right amygdala and the anterior parahipoccampal gyrus
- Nodes with increased betweenness-centrality compared to placebo ([2]; intravenous, 10 IU): increased the betweenness-centrality of the right and left occipital poles, left postcentral gyrus, right supramarginal gyrus and left and right cerebellum (areas 4–5 and area 10, respectively)
- Nodes with increased betweenness-centrality compared to placebo ([2]; nebuliser, 40 IU intranasal): increased the betweenness-centrality of the temporo-occipital area of the left middle temporal gyrus and the left cerebellum (area 7)
- Nodes with decreased betweenness-centrality compared to placebo ([2]; spray, 40 IU intranasal): decreased the betweenness-centrality of the precuneus, right posterior supramarginal and middle temporal gyri, the left anterior middle temporal gyrus and the right cerebellum (area 9)
- Nodes with increased betweenness-centrality compared to placebo ([2]; spray, 40 IU intranasal): increased the betweenness-centrality of the right orbitofrontal cortex, left lateral occipital cortex, right temporal occipital fusiform cortex and left occipital pole
- Nodes with decreased node degree compared to placebo ([3]; intravenous, 10 IU): decreased the node degree of the precuneus and right temporal pole
- Nodes with increased node degree compared to placebo ([3]; nebuliser, 40 IU intranasal): increased the node degree of the left posterior superior temporal gyrus and left cerebellum (area 7)
- Nodes with decreased node degree compared to placebo ([3]; spray, 40 IU intranasal): decreased the node degree of the right posterior inferior temporal gyrus
- Nodes with increased node degree compared to placebo ([3]; spray, 40 IU intranasal): increased node degree of the brainstem, left cerebellum (area 1) and right intracalcarine cortex
